Source: US20250062040A1, “COMPUTER-BASED SYSTEMS FOR ACQUIRING AND ANALYZING OBS[…] DATA” (priority 2021, published 2025)

Tests used:
[1] = pEEG deep learning drug class classifier; type: in vivo; conditions: classifier trained with a set that did not include the drug, FIG. 25
Description: Briefly, the network may be based on a bidirectional Long Short-Term Memory (LSTM, 32 hidden units) layer, two fully connected layers (“elu and “softmax” activations), batch normalization and dropout layers. The model may be trained using cross-entropy loss function and “adam” optimizer, for at least 30-50 epochs. The last layer of the model may be a dense layer, which may provide probabilities for more than a dozen drug classes.
In some embodiments, to improve the robustness of the predictive model, independent implementations of a general model architecture may be built by randomly initializing the weights for the RNN. Final predictions may be derived from the model with highest accuracy, or from the average such as the median or mean results from all trained models. To check the accuracy of the resulting model system, different cross validation approaches may be used such as a n-samples-out, or n-doses-out, and/or a whole-drug-out, where an n-samples subset, an n-doses subset, and/or a whole drug, respectively, may be systematically removed from the training dataset, and the rest of the drugs may be used for training a new model. The excluded data may then be used for model validation as a test set. Model prediction may be done at a sample level, so as to get a prediction for a given drug-dose. […]

[2] = test system: Q175 heterozygous (HET) mice model of Huntington Disease; experiment: DBSA query with Q175 HET target signature; type: in vivo; conditions: Q175 HET at 6 months vs WT
Text: In some embodiments, illustrative computing devices of present disclosure can be programmed with one or more techniques of the present disclosure to screen active reference compounds against an animal model of a neurodegenerative disease. As an example, in an application of DBSA, the Q175 heterozygous (HET) mice model of Huntington Disease was used to generate a target signature. Male and female cohorts of the Q175 HET model mice at 6 months were compared against the associated wild type (WT) controls. The DBSA Target signature model for the Q175 HET at 6 months is, for example, illustrated in FIG. 56. The target signature was used to query a database containing list signatures for reference compounds profiled at multiple doses.
(§1) Of interest was the identification of the atypical antidepressant tianeptine, currently not used for the treatment of HD in the clinic. […] A control group of WT mice was treated equally with saline. […] The beneficial effect of tianeptine was quantified using DRFA, which transforms the original subject feature profile to a non-redundant, decorrelated ranked 2D features space. The non-redundant decorrelated ranked features space was used to calculate the discrimination between control (WT treated with saline) and disease group (Q175 HET group treated with saline). The disease group (Q175 HET) treated with tianeptine was then projected onto this 2D space and its proximity to the control group was calculated.

[3] = SmartCube / behavioral platform total activity and Class signature; type: in vivo
Text: In some embodiments, one or more techniques described herein may quantify at least one activity score that may be quantified based on a discriminability score between at least two datasets, where the discriminability score may refer to an accuracy of a classifier, or a quantity derived therefrom. At least one dataset is a control group. In some embodiments, one or more techniques described herein may quantify at least one similarity value, which is the complement of the at least one activity value, where at least two groups are compared.
In some embodiments, one or more techniques described herein may calculate the activity score between the two groups using, for example, without limitation, a binary machine learning classifier. In some embodiments, a discriminability score of the at least two groups, as assessed by the classifier, may be used as the at least one activity score, representing how phenotypically different the two groups are. For example, the at least two groups may refer to a treatment group and a vehicle group associated with the at least two datasets.
In some embodiments, one or more techniques described herein may utilize a machine learning algorithm to perform the following steps: obtaining a plurality of subsamples, where a number, k, of iterations of the plurality of subsamples of a larger group match sample size n of a smaller group. […]

[4] = psychedelic-related behaviors (HTR, ESH, ELO) in behavioral platform videos; type: in vivo, mice
Text: FIG. 71 illustrates a response curve for R-(−)-4-iodo-2,5-dimethoxyamphetamine (DOI), showing anxiolytic, another therapeutic signal, and the head twitch response (HTR) in accordance with one or more embodiments of the present disclosure. FIG. 71 represents a signature of DOI in a behavioral platform, where multiple classes can be collapsed into a few classes of interest. For example, multiple classes can be collapsed into five classes of interest for simplicity.
In some embodiments, the first step may be to generate a collection of ground-truth examples by manually identifying features corresponding to behaviors of interest (e.g., using a labelling software or platform to add labels identifying such features). Each experimental session can be recorded in terms of precise start and end frame which can set the predefined duration of the experimental session. For manual identification purposes, the system may use a top camera view, at a 50% slower viewing speed, although other angles from the other cameras and other sensors such as piezoelectric and thermal sensors may also be used, and the resulting data integrated. Class analysis (e.g., FIG. 71), on the other hand, may include data acquired from all sensors of a behavioral platform.
The disclosed embodiments can extract behavioral features corresponding to exemplary behaviors. The disclosed embodiments are not limited to any particular implementation of these features. In some embodiments, a behavioral feature can be implemented as a time-stamped indication that a behavior occurred at that time, or a Boolean value in a time series indicating the occurrence of a behavior. In some embodiments, a training dataset including observational data and corresponding, manually identified features can be used to train the machine learning classifier.
FIG. 76 illustrates graphs illustrating a quantification of psychedelic-related behaviors detected in behavioral platform videos: ear scratch with hind paw (ESH), head twitch response (HTR), and elongation-contraction (ELO) for LSD and DOI at two doses in accordance with one or more embodiments of the present disclosure. FIG. 76 indicates a number of occurrences of HTRs, ESH, and ELOs, in behavioral platform videos of mice treated with DOI, LSD or vehicle, in triplicates, were recorded during the periods of rest for a total of 12 minutes for each subject.

[5] = SmartCube diagonal index (DD) similarity ranking and psychedelic profile; type: in vivo; conditions: ranked among 90 reference drugs
Description: The similarity score for each of the dose-dose pairs of the T and R drugs was computed and used to calculate the diagonal index for each T-R drug pair or DDTiRj. For each Ti drug, the Rj drugs were then ranked by the corresponding DDTiRj.

[6] = DBSA query with scopolamine target signature; type: in vivo
Text: In some embodiments, illustrative computing devices of the present disclosure can be programmed with one or more techniques of the present disclosure to identify a novel cognitive enhancer compound by querying a large library of compounds profiled in by a behavioral platform. This example is based on a hypothesis that compounds with a drug-induced behavioral data profile that is reversed to that of scopolamine, which impairs cognition, are potentially cognitive enhancers. Other ways to impair cognition, such as other drugs or genetic manipulations, can be used to generate similar hypotheses.
The target signature was used to query a library of list signatures associated with active library and reference compounds to rank the compounds by their capacity to reverse the behavioral response to scopolamine.

[7] = eye temperature by automated thermographic system of behavioral platform; type: in vivo, mice; conditions: various doses, FIG. 39
Text: In some embodiments, with regard to image calibration, in an experimental session, actual Peltier temperatures may be logged and saved along with the thermal camera video. The logged Peltier temperatures in Celsius can be paired to the optical density (OD) levels measured at the two Peltier ROIs in each corresponding frame, so that a linear calibration curve can be used to convert the OD of measured eye ROIs to degrees Celsius.
In some embodiments, the subject body, such as a mouse, can be segmented based on the optical density distribution on each frame. The contour of the mouse can be masked by finding the largest eight-connected objects in the binarized image as shown in FIG. 36. […] The size of the eye region relative to the mask and shape properties such as ‘Eccentricity’ (ratio of the distance between the foci of the ellipse and its major axis length) and ‘Solidity’ (proportion of the pixels in the convex hull that are also in the region, computed as Area/ConvexArea) can be measured to filter out false positives, when those parameters may be outside of the range learned from manually annotated ground truth examples.
In some embodiments, with regard to feature extraction, the average OD of automatically detected eye ROIs can be converted to Celsius based on the calibration curve. […]

[8] = test system: Q175 HET mice; experiment: treatment of Q175 HET mice, recovery quantified using DRFA; type: in vivo; conditions: 20 mg/kg, FIG. 62
Description: as §1

[9] = periods of rest, total 12 minutes per subject, vs vehicle, two doses, FIG. 76

Structure (SMILES): CC(NC(C)(C)C)C(=O)c1cccc(Cl)c1 (centres unmarked) [bupropion]
- therapeutic class signature by pEEG classifier [1]: more stimulant profile
- DBSA prediction against Q175 HET target signature [2]: top predictions

Structure (SMILES): COc1cc(C[C@@H](C)N)c(OC)cc1I [DOI, R-(−)-4-iodo-2,5-dimethoxyamphetamine]
- class signal of behavioral platform classifier ([3]; FIG. 71, classes collapsed into five classes): predominant anxiolytic therapeutic signal
- head twitch response (HTR) dose-response ([4]; FIG. 71, two doses): high at both doses
- number of occurrences of HTRs [4, 9]: most robust increase
- number of occurrences of ear scratches (ESH) [4, 9]: most robust increase

Structure (SMILES): CN1C(=O)CN=C(c2ccccc2)c2cc(Cl)ccc21 [diazepam]
- rank of diagonal index DDTT (similarity of a second run to a previous run of the same drug) [5]: third out of 90

Structure (SMILES): CN1[C@@H]2C[C@@H](OC(=O)[C@H](CO)c3ccccc3)C[C@H]1[C@@H]1O[C@@H]12 [scopolamine]
- DBSA similarity to scopolamine target signature ([6]; FIG. 59, at a different dose than the one used for the DBSA model): among the most similar compounds

Structure (SMILES): CNC(C)Cc1ccc2c(c1)OCO2 (centres unmarked) [MDMA, 3,4-methylenedioxymethamphetamine]
- eye temperature [7]: dose-dependent increase of eye temperature

Structure (SMILES): NC(=O)C[S+]([O-])C(c1ccccc1)c1ccccc1 (centres unmarked) [modafinil]
- DBSA prediction against Q175 HET target signature [2]: top predictions

Structure (SMILES): COC(=O)C(c1ccccc1)C1CCCCN1 (centres unmarked) [methylphenidate]
- DBSA prediction against Q175 HET target signature [2]: top predictions

Structure (SMILES): CN1c2ccccc2C(NCCCCCCC(=O)O)c2ccc(Cl)cc2S1(=O)=O (centres unmarked) [tianeptine]
- DBSA prediction against Q175 HET target signature [2]: novel prediction
- rescue of behavioral phenotype of Q175 HET mice ([8]; acutely): significantly rescued the behavioral phenotype
- rescue of behavioral phenotype of Q175 HET mice ([8]; chronically (4-week regimen)): significantly rescued the behavioral phenotype

Structure (SMILES): COc1cc2c(cc1OC)C(=O)C(CC1CCN(Cc3ccccc3)CC1)C2 (centres unmarked) [donepezil]
- DBSA reverse list signature to scopolamine target signature ([6]; FIG. 60): among the top reverse list signature predictions

Structure (SMILES): CN(C)CCC=C1c2ccccc2CCc2ccccc21 [Amitriptyline]
- therapeutic class signature by pEEG classifier [1]: clean antidepressant signal

Structure (SMILES): CCN(CC)C(=O)[C@@H]1C=C2c3cccc4[nH]cc(c34)C[C@H]2N(C)C1 [LSD, lysergic acid diethylamide]
- total activity as a function of dose ([3]; calculated against vehicle control, activity rescaled 0% to 100%, threshold 70%, FIG. 64): only the 3 mg/kg and 5 mg/kg being different from vehicle in a statistically significant manner
- rank of diagonal index DDTT (similarity of a second run to a previous run of the same drug) [5]: very high
- number of occurrences of ear scratches (ESH) [4, 9]: did not result in occurrences of ear scratches
- number of occurrences of elongation-contraction (ELO) [4, 9]: significant increase in the number of ELOs
